Values quoted from earlier work, collected in US20240416337A1, “Quantitation of chemical, biological and biochemical analytes on a flow assay using a smartphone” (Real-Time Analyzers, Inc., priority 2023, published 2024).

Legend:
[1] = in vivo
[2] = blood compared with saliva

ionization at physiological pH: does not ionize
passage through salivary glands into the oral cavity [1]: readily passes through salivary glands
tacrolimus concentration in the blood [2]: modestly higher than in saliva
Structure (SMILES): C=CC[C@@H]1/C=C(\C)C[C@H](C)C[C@H](OC)[C@H]2O[C@@](O)(C(=O)C(=O)N3CCCC[C@H]3C(=O)O[C@H](/C(C)=C/[C@@H]3CC[C@@H](O)[C@H](OC)C3)[C@H](C)[C@@H](O)CC1=O)[C@H](C)C[C@@H]2OC [tacrolimus]
